± gives the expanded uncertainty stated by the source.
Test: mn = molality of the nth substance listed, in mol/kg
Settings: for electrical conductivity: 100 kPa, Liquid, Alternating current cell with electrodes; for surface tension liquid-gas: Ring tensiometer

CCCCCCCCC[NH+](CCO)CC(C)O.[Cl-] (stereo not drawn) + O
Settings | electrical conductivity [S/m] | surface tension liquid-gas [mN/m]
298.15 K, m1 = 0.0008607 | 0.00345 ± 0.00019 | –
298.15 K, m1 = 0.0008869 | 0.00352 ± 0.00019 | –
303.15 K, m1 = 1.77e-05 | 0.00064 ± 3.5e-05 | –
303.15 K, m1 = 1.774e-05 | – | 51.35 ± 0.68
303.15 K, m1 = 3.548e-05 | – | 46.22 ± 0.62
303.15 K, m1 = 3.66e-05 | 0.000736 ± 4.1e-05 | –
303.15 K, m1 = 5.54e-05 | 0.000832 ± 4.6e-05 | –
303.15 K, m1 = 7.43e-05 | 0.000928 ± 5.3e-05 | –
303.15 K, m1 = 8.87e-05 | – | 38.79 ± 0.53
303.15 K, m1 = 9.31e-05 | 0.00102 ± 8.2e-05 | –
303.15 K, m1 = 0.000112 | 0.00112 ± 7e-05 | –
303.15 K, m1 = 0.0001308 | 0.00122 ± 0.0001 | –
303.15 K, m1 = 0.0001497 | 0.00131 ± 7.3e-05 | –
303.15 K, m1 = 0.0001685 | 0.00141 ± 9.1e-05 | –
303.15 K, m1 = 0.0001774 | – | 33.47 ± 0.47
303.15 K, m1 = 0.0001874 | 0.00151 ± 8.3e-05 | –
303.15 K, m1 = 0.0002062 | 0.0016 ± 0.00021 | –
303.15 K, m1 = 0.0002251 | 0.0017 ± 9.4e-05 | –
303.15 K, m1 = 0.0002439 | 0.00179 ± 0.0001 | –
303.15 K, m1 = 0.0002628 | 0.00189 ± 0.0001 | –
303.15 K, m1 = 0.0002661 | – | 30.23 ± 0.44
303.15 K, m1 = 0.0002816 | 0.00199 ± 0.00013 | –
303.15 K, m1 = 0.0003004 | 0.00208 ± 0.00012 | –
303.15 K, m1 = 0.0003193 | 0.00218 ± 0.00012 | –
303.15 K, m1 = 0.0003229 | – | 29.48 ± 0.43
303.15 K, m1 = 0.0003451 | 0.00227 ± 0.00017 | –
303.15 K, m1 = 0.0003548 | – | 29.41 ± 0.43
303.15 K, m1 = 0.0003709 | 0.00236 ± 0.00013 | –
303.15 K, m1 = 0.0003967 | 0.00245 ± 0.00014 | –
303.15 K, m1 = 0.0004225 | 0.00254 ± 0.00022 | –
303.15 K, m1 = 0.0004483 | 0.00263 ± 0.00019 | –
303.15 K, m1 = 0.0004741 | 0.00272 ± 0.00017 | –
303.15 K, m1 = 0.0004999 | 0.00281 ± 0.00016 | –
303.15 K, m1 = 0.0005257 | 0.00291 ± 0.00016 | –
303.15 K, m1 = 0.0005515 | 0.003 ± 0.00016 | –
303.15 K, m1 = 0.0005773 | 0.00309 ± 0.00017 | –
303.15 K, m1 = 0.0006031 | 0.00318 ± 0.00017 | –
303.15 K, m1 = 0.0006289 | 0.00327 ± 0.00018 | –
303.15 K, m1 = 0.0006547 | 0.00336 ± 0.00018 | –
303.15 K, m1 = 0.0006805 | 0.00345 ± 0.00019 | –
303.15 K, m1 = 0.0007063 | 0.00354 ± 0.00019 | –
303.15 K, m1 = 0.0007321 | 0.00363 ± 0.0002 | –
303.15 K, m1 = 0.0007579 | 0.00372 ± 0.0002 | –
303.15 K, m1 = 0.0007837 | 0.00381 ± 0.00021 | –
303.15 K, m1 = 0.0008095 | 0.00391 ± 0.00021 | –
303.15 K, m1 = 0.0008353 | 0.004 ± 0.00022 | –
303.15 K, m1 = 0.0008611 | 0.00409 ± 0.00022 | –
303.15 K, m1 = 0.0008869 | 0.00418 ± 0.00023 | –
303.15 K, m1 = 0.000887 | – | 28.48 ± 0.42
303.15 K, m1 = 0.001774 | – | 28.01 ± 0.42
303.15 K, m1 = 0.002661 | – | 27.82 ± 0.42
303.15 K, m1 = 0.003547 | – | 27.65 ± 0.42
308.15 K, m1 = 8.869e-06 | – | 52.23 ± 0.69
308.15 K, m1 = 1.77e-05 | 0.00074 ± 4.1e-05 | –
308.15 K, m1 = 1.774e-05 | – | 47.19 ± 0.63
308.15 K, m1 = 3.42e-05 | 0.000841 ± 4.7e-05 | –
308.15 K, m1 = 3.548e-05 | – | 42.29 ± 0.57
308.15 K, m1 = 5.07e-05 | 0.000941 ± 5.3e-05 | –
308.15 K, m1 = 6.72e-05 | 0.00104 ± 6e-05 | –
308.15 K, m1 = 8.36e-05 | 0.00114 ± 6.6e-05 | –
308.15 K, m1 = 8.87e-05 | – | 35.88 ± 0.5
308.15 K, m1 = 0.0001001 | 0.00124 ± 7.2e-05 | –
308.15 K, m1 = 0.0001166 | 0.00134 ± 7.9e-05 | –
308.15 K, m1 = 0.000133 | 0.00144 ± 8.6e-05 | –
308.15 K, m1 = 0.0001495 | 0.00154 ± 9.2e-05 | –
308.15 K, m1 = 0.000166 | 0.00165 ± 9.9e-05 | –
308.15 K, m1 = 0.0001774 | – | 30.89 ± 0.45
308.15 K, m1 = 0.0001825 | 0.00175 ± 0.00011 | –
308.15 K, m1 = 0.0001989 | 0.00185 ± 0.00011 | –
308.15 K, m1 = 0.0002154 | 0.00195 ± 0.00012 | –
308.15 K, m1 = 0.0002319 | 0.00205 ± 0.00013 | –
308.15 K, m1 = 0.0002483 | 0.00215 ± 0.00013 | 28.73 ± 0.43
308.15 K, m1 = 0.0002732 | – | 28.57 ± 0.42
308.15 K, m1 = 0.0002803 | 0.00229 ± 0.00014 | –
308.15 K, m1 = 0.0003122 | 0.00243 ± 0.00015 | –
308.15 K, m1 = 0.0003441 | 0.00257 ± 0.00016 | –
308.15 K, m1 = 0.0003548 | – | 28.44 ± 0.42
308.15 K, m1 = 0.0003761 | 0.00271 ± 0.00017 | –
308.15 K, m1 = 0.000408 | 0.00285 ± 0.00018 | –
308.15 K, m1 = 0.0004399 | 0.00299 ± 0.00019 | –
308.15 K, m1 = 0.0004718 | 0.00313 ± 0.0002 | –
308.15 K, m1 = 0.0005038 | 0.00327 ± 0.00021 | –
308.15 K, m1 = 0.0005357 | 0.00341 ± 0.00022 | –
308.15 K, m1 = 0.0005676 | 0.00356 ± 0.00022 | –
308.15 K, m1 = 0.0005996 | 0.00369 ± 0.00023 | –
308.15 K, m1 = 0.0006315 | 0.00384 ± 0.00023 | –
308.15 K, m1 = 0.0006634 | 0.00398 ± 0.00024 | –
308.15 K, m1 = 0.0006954 | 0.00412 ± 0.00025 | –
308.15 K, m1 = 0.0007273 | 0.00426 ± 0.00025 | –
308.15 K, m1 = 0.0007592 | 0.0044 ± 0.00026 | –
308.15 K, m1 = 0.0007911 | 0.00454 ± 0.00027 | –
308.15 K, m1 = 0.0008231 | 0.00468 ± 0.00028 | –
308.15 K, m1 = 0.000855 | 0.00482 ± 0.00028 | –
308.15 K, m1 = 0.0008869 | 0.00496 ± 0.00029 | –
308.15 K, m1 = 0.000887 | – | 27.73 ± 0.42
308.15 K, m1 = 0.001774 | – | 27.41 ± 0.41
308.15 K, m1 = 0.002661 | – | 27.23 ± 0.41

Reference: the NIST ThermoML archive (doi:10.1021/acs.jced.7b00347)
